Like-named read-outs stand apart in the source and are kept apart here. Each block holds one compound with its values, some of them ahead of it.
Molecular target: HIV-1 protease (Human immunodeficiency virus type 1 group M subtype B, UniProt P03369)
Experiment: biochemical
Procedure: HIV-1 protease activity was measured at 37° C. using a continuous fluorimetric assay based on the method of Toth et al., (Toth et al., 1990, Int. J. Pept. Res. 36 544-550). The substrate, 2-aminobenzoyl-threonine-isoleucine-norleucine-(p-nitro)-phenylalanine-glutamine-arginine-NH2 (Abz-NF^* -6), was synthesised by solid phase peptide synthesis (Kent et al., 1991, In: Peptides 1990: Proceedings of the Twenty-First European Peptide Symposium (Girault, E. and Andrew, D. eds.) pp 172-173, ESCOM, Leiden). Enzyme activity was measured as the increase in fluorescence intensity upon substrate hydrolysis. The change in fluorescence intensity was monitored with a Perkin Elmer LS50B luminescence spectrometer fitted with a thermostatted micro cuvette holder. Measurements were carried out using an excitation wavelength of 320 nm (bandwith 5 nm) and an emission wavelength of […] (bandwith 5 nm).
Inhibition assays were routinely carried out at pH 6.5 and μ=0.1 M using a single substrate concentration. The assay mixtures contained 50 μM Abz-NF^* -6 in 100 mM 2-(N-morpholino)ethanesulphonate buffer, containing 10% (v/v) glycerol and 50 μg/ml bovine serum albumin, in a total final volume of 400 μl. Where inhibitors had to be dissolved in dimethyl sulphoxide or other organic solvents, the final concentration of solvent in the control and inhibition assays were kept absolutely constant because of the severe inhibitory effect of some solvents on the enzyme activity (Bergman et al., 1992, 17th Ann. Lorne Conf. on Protein Struct. and Funct. Abstr.). In all assays, the reaction was initiated by the addition of 10 μl of enzyme solution.

[1] = Table 1, pH 6.5, 37° C., read-out: IC50
[2] = Table 4, rac (R and S isomer together), read-out: IC50
[3] = Table 2, pH 6.5, 37° C., read-out: IC50
[4] = Table 9, R isomer, read-out: IC50

- protease inhibition, stated in words: much less active than 38 & 39
- IC50 (Table 5, pH 6.5, 37° C., read-out: IC50): 22000 nM
SMILES: CCOC(=O)CCCOc1ccc(C[C@H](NC(=O)[C@H](CC(N)=O)NC(=O)OC(C)(C)C)[C@@H](O)CN2CCC[C@H]2C(=O)NC(C)(C)C)cc1 [Compound 37]

- IC50 [1]: 55000 nM
SMILES: NC(=O)C[C@@H]1NC(=O)CCCOc2ccc(cc2)C[C@@H]([C@H](O)CN2CCC[C@H]2C(N)=O)NC1=O [Compound 6]

SMILES: CC[C@H](C)[C@H](NC(=O)[C@@H]1CCCN1C[C@H](O)[C@@H]1Cc2ccc(cc2)OCC(=O)N[C@@H](Cc2ccc(O)cc2)C(=O)N[C@@H](CC(N)=O)C(=O)N1)C(=O)N[C@H](C(N)=O)C(C)C [Compound 18]
- IC50: 38 nM

- IC50 [1]: 600 nM
SMILES: CC[C@H](C)[C@H](NC(=O)[C@@H]1CCCN1C[C@@H](O)[C@@H]1Cc2ccc(cc2)OCC(O)C(O)C(=O)N[C@@H](CC(N)=O)C(=O)N1)C(=O)N[C@H](C(N)=O)C(C)C (some centres unmarked) [Compound 10]
- protease inhibition, stated in words: no improvement was observed in potency compared to 3 or 9

SMILES: CC(C)(C)NC(=O)CN(Cc1ccccc1)C[C@@H](O)[C@@H]1Cc2ccc(cc2)OCCCC(=O)N[C@@H](CC(N)=O)C(=O)N1 [Compound 28]
- IC50: 1500 nM

SMILES: CC(C)C[C@@H]1NC(=O)CCCOc2ccc(cc2)C[C@@H]([C@H](O)CN2CCCC[C@H]2C(=O)NC(C)(C)C)NC1=O [Compound 54]
- protease inhibition, stated in words: slightly better than the isopropyl of 48/49

SMILES: CC[C@H](C)[C@H](NC(=O)[C@@H]1CCCN1C[C@H](O)[C@@H]1Cc2ccc(cc2)OCC(=O)N[C@@H](Cc2cnc[nH]2)C(=O)N[C@@H](CC(N)=O)C(=O)N1)C(=O)N[C@H](C(N)=O)C(C)C [Compound 20]
- IC50 (pH 6.5): 26 nM

SMILES: CC[C@H](C)[C@H](NC(=O)[C@H](Cc1ccccc1)NC[C@@H](O)[C@@H]1Cc2ccc(cc2)OCCCC(=O)N[C@@H](C(C)C)C(=O)N1)C(=O)N[C@H](C(N)=O)C(C)C [Compound 46]
- protease inhibition, stated in words: there was not a great deal of difference

- IC50 [2]: 42000 nM
SMILES: CC(C)NC(=O)C(Cc1ccccc1)NC[C@@H](O)[C@@H]1Cc2ccc(cc2)OCCCC(=O)N[C@@H](CC(N)=O)C(=O)N1 (some centres unmarked) [Compound 32]

- protease inhibition, stated in words: slightly enhanced activity
- IC50 (Table 10, pH 6.5, 37° C., read-out: IC50): 250 nM
SMILES: CC(C)(C)OC(=O)N[C@@H](Cc1ccccc1)[C@H](O)CN[C@H]1Cc2ccc(cc2)OCCCNC(=O)[C@@H](CCC(N)=O)NC1=O [Compound 107]

- IC50 (Table 7, pH 6.5, 37° C., read-out: IC50): 1 nM
SMILES: CC(C)CCN(C[C@@H](O)[C@@H]1Cc2ccc(cc2)OCCCCC(=O)N[C@@H](C(C)C)C(=O)N1)S(=O)(=O)c1ccc(N)cc1 [Compound 62]

- protease inhibition, stated in words: slightly reduced potency
- IC50 [3]: 350 nM
SMILES: CCOC(=O)CCCOc1ccc(C[C@H](NC(=O)[C@H](CC(N)=O)NC(C)=O)[C@H](O)CN2CCC[C@H]2C(=O)N[C@H](C(=O)N[C@H](C(N)=O)C(C)C)[C@@H](C)CC)cc1 [Compound 14]

SMILES: CC[C@H](C)[C@H](NC(=O)[C@@H]1CCCN1C[C@H](O)[C@@H]1Cc2ccc(cc2)OCCNCC(=O)N[C@@H](CC(N)=O)C(=O)N1)C(=O)N[C@H](C(N)=O)C(C)C [Compound 9]
- IC50 [1]: 37 nM

- protease inhibition, stated in words: reduced potency
- IC50 [1]: 120000 nM
SMILES: NC(=O)C[C@@H]1NC(=O)CCCOc2ccc(cc2)C[C@@H]([C@@H](O)CN2CCC[C@H]2C(N)=O)NC1=O [Compound 7]

- protease inhibition, stated in words: increased potency
SMILES: CC(C)[C@@H]1NC(=O)CCCOc2ccc(cc2)C[C@@H]([C@@H](O)CN2CCN(Cc3ccccc3)CC2C(=O)NC(C)(C)C)NC1=O (some centres unmarked) [Compound 83]

SMILES: CC[C@H](C)[C@H](NC(=O)[C@@H]1CCCN1C[C@@H](O)[C@@H]1Cc2ccc(cc2)OCC(=O)N[C@@H](Cc2ccc(O)cc2)C(=O)N[C@@H](CC(N)=O)C(=O)N1)C(=O)N[C@H](C(N)=O)C(C)C [Compound 19]
- IC50: 165 nM

- IC50 (read-out: IC50): 9500 nM
SMILES: CC[C@H](C)[C@H](NC(=O)[C@@H]1CCCN1C[C@@H](O)[C@@H]1Cc2ccc(cc2)OCCCC(=O)N[C@@H](CC(N)=O)C(=O)N1)C(N)=O [Compound 4]

- protease inhibition, stated in words: only μM instead of nM
- IC50 (read-out: IC50): 1900 nM
SMILES: CC(C)CN(CC(=O)NC(C)(C)C)C[C@H](O)[C@@H]1Cc2ccc(cc2)OCCCC(=O)N[C@@H](CC(N)=O)C(=O)N1 [Compound 27]

SMILES: CC[C@H](C)[C@H](NC(=O)[C@@H]1CCCN1C[C@@H](O)[C@@H]1Cc2ccc(cc2)OCC(=O)N[C@H](CCC(N)=O)C(=O)N[C@@H](CC(N)=O)C(=O)N1)C(=O)N[C@H](C(N)=O)C(C)C [Compound 24]
- IC50: 40 nM

- protease inhibition, stated in words: little effect
- IC50 [4]: 2 nM
SMILES: CC[C@H](C)[C@@H]1NC(=O)[C@@H](NC[C@@H](O)[C@H](Cc2ccccc2)NC(=O)[C@@H](NC(=O)[C@H](CC(C)C)NC(C)=O)C(C)C)Cc2ccc(cc2)OCCCNC1=O [Compound 87, [2(R),3(S),11'(S),8'(S)]-3-[-Acetyl-(S)-leucinyl-(S)-valinyl]amino-4-phenyl-1-[11'-[7',10'-dioxo-8'-(1-methylpropyl)-2'-oxa-6',9'-diazabicyclo[11.2.2]heptadeca-13',15',16'-triene]amino]butan-2-ol]

- IC50 [2]: 70000 nM
SMILES: CC(C)(C)NC(=O)C(Cc1ccccc1)NC[C@@H](O)[C@@H]1Cc2ccc(cc2)OCCCC(=O)N[C@@H](CC(N)=O)C(=O)N1 (some centres unmarked) [Compound 30]

SMILES: CC[C@H](C)[C@H](NC(=O)[C@@H]1CCCN1C[C@@H](O)[C@@H]1Cc2ccc(cc2)OCC(=O)N[C@@H](CCCNC(=N)N)C(=O)N[C@@H](CC(N)=O)C(=O)N1)C(=O)N[C@H](C(N)=O)C(C)C [Compound 23]
- IC50 (pH 6.5): 49 nM

- IC50 [2]: 42000 nM
SMILES: CC(C)NC(=O)C(Cc1ccccc1)NC[C@H](O)[C@@H]1Cc2ccc(cc2)OCCCC(=O)N[C@@H](CC(N)=O)C(=O)N1 (some centres unmarked) [Compound 33]

SMILES: CC(C)C[C@@H]1NC(=O)CCCOc2ccc(cc2)C[C@@H]([C@@H](O)CN2CCCC[C@H]2C(=O)NC(C)(C)C)NC1=O [Compound 55]
- protease inhibition, stated in words: slightly better than the isopropyl of 48/49

SMILES: CC[C@H](C)[C@@H]1NC(=O)[C@@H](NC[C@H](Cc2ccccc2)NC(=O)OC(C)(C)C)Cc2ccc(cc2)OCCCNC1=O [Compound 90, [2S, 11'S, 8'S]-2-[t-butoxycarbonyl]amino-3-phenyl-1-[11'-[7',10'-dioxo-8'-(-1-methylpropyl)-2'-oxa-6',9'-diazabicyclo[11.2.2]heptadeca-13',15',16'-triene]amino]propane]
- IC50 [4]: 150 nM

- protease inhibition, stated in words: potent inhibitors of HIV-1 protease
SMILES: CC(=O)Nc1ccc(S(=O)(=O)N(CCC(C)C)C[C@H](O)[C@@H]2Cc3ccc(cc3)OCCCC(=O)N[C@@H](C(C)C)C(=O)N2)cc1 [Compound 59]

- IC50 [2]: 70000 nM
SMILES: CC(C)(C)NC(=O)C(Cc1ccccc1)NC[C@H](O)[C@@H]1Cc2ccc(cc2)OCCCC(=O)N[C@@H](CC(N)=O)C(=O)N1 (some centres unmarked) [Compound 31]

SMILES: CC[C@H](C)[C@H](NC(=O)[C@@H]1CCCN1C[C@H](O)[C@@H]1Cc2ccc(cc2)OCC(=O)N[C@H](CCC(N)=O)C(=O)N[C@@H](CC(N)=O)C(=O)N1)C(=O)N[C@H](C(N)=O)C(C)C [Compound 25]
- IC50: 40 nM

- protease inhibition, stated in words: slightly enhanced activity
SMILES: CC(C)(C)OC(=O)N[C@@H](Cc1ccccc1)[C@@H](O)CN[C@H]1Cc2ccc(cc2)OCCCNC(=O)[C@@H](CCC(N)=O)NC1=O [Compound 108]

- protease inhibition, stated in words: activity was instead reduced
- IC50 [3]: 122000 nM
SMILES: CC[C@H](C)[C@H](NC(=O)[C@@H]1CCCN1C[C@@H](O)[C@@H]1CSSCC(NC(C)=O)C(=O)NCC(=O)N[C@@H](CC(N)=O)C(=O)N1)C(=O)N[C@H](C(N)=O)C(C)C (some centres unmarked) [Compound 16]

- IC50 (read-out: IC50): 2 nM
SMILES: CC(C)CCN(C[C@@H](O)[C@@H]1Cc2ccc(cc2)OCCCCCC(=O)N[C@@H](C(C)C)C(=O)N1)S(=O)(=O)c1ccc(N)cc1 [Compound 64]

SMILES: CC[C@H](C)[C@H](NC(=O)[C@@H]1CCCN1C[C@H](O)[C@@H]1Cc2ccc(cc2)OCCCC(=O)N[C@@H](CC(N)=O)C(=O)N1)C(=O)N[C@H](C(N)=O)C(C)C [Compound 3, [2(S),11'(S),8'(S)]-2-[11'-[6',9'-dioxo-8'-(ethanamide)-2'-oxa-7',10'-diazabicyclo[11.2.2]heptadeca-13',15',16'-triene]]-1-(N-(S)-prolyl-(S)-isoleucyl-(S)-valine amide)ethan-2-ol]
- IC50: 39 nM
- protease inhibition, stated in words: successfully functionally mimicked compound 1

SMILES: CC(C)CNC(=O)C(Cc1ccccc1)NC[C@H](O)[C@@H]1Cc2ccc(cc2)OCCCC(=O)N[C@@H](CC(N)=O)C(=O)N1 (some centres unmarked) [Compound 35]
- IC50: 5200 nM

SMILES: CC[C@H](C)[C@H](NC(=O)[C@@H]1CCCN1C[C@H](O)[C@@H]1Cc2ccc(cc2)OCC(=O)N[C@@H](CCCNC(=N)N)C(=O)N[C@@H](CC(N)=O)C(=O)N1)C(=O)N[C@H](C(N)=O)C(C)C [Compound 22]
- IC50 (pH 6.5): 42 nM

SMILES: CC(C)(C)NC(=O)[C@@H]1CCCCN1C[C@H](O)[C@@H]1Cc2ccc(cc2)OCCCC(=O)N[C@@H](CC(N)=O)C(=O)N1 [Compound 45]
- IC50: 5600 nM
